Measured values: patent EP0019589A1, “Tripeptide derivatives and their use in a process for determining enzymes” (Pentapharm A.G., priority 1979, dated 1980)
Non-standard residues stand in square brackets, D forms with d. Residues, ends and D or L forms follow the SMILES beside them. *: point of attachment. Cha = N[C@@H](CC1CCCCC1)C(=O)O; dCha = N[C@H](CC1CCCCC1)C(=O)O; dChg = N[C@@H](C(=O)O)C1CCCCC1; dPhg = N[C@@H](C(=O)O)c1ccccc1; pNA = O=[N+]([O-])c1ccc(N*)cc1; Chg = N[C@H](C(=O)O)C1CCCCC1; dNle = CCCC[C@@H](N)C(=O)O; Pip = O=C(O)[C@@H]1CCCCN1; dNva = CCC[C@@H](N)C(=O)O; Nle = CCCC[C@H](N)C(=O)O; dAbu = CC[C@@H](N)C(=O)O; Nva = CCC[C@H](N)C(=O)O; Abu = CC[C@H](N)C(=O)O

Legend:
Type in all cases: biochemical
Humanplasmin = molecular target: T1, Humanplasmin (Homo sapiens, UniProt P00747); test: Cleavage of chromogenic substrate by human plasmin; settings: 1 CU-Einheit human plasmin, per min; Substratkonzentration 2 x 10^-4 molar
T1 construct: da bei der Aktivierung aus 1 Molekül Plasminogen 1 Molekül Plasmin entsteht

Humanthrombin = molecular target: T2, Humanthrombin (Homo sapiens, UniProt P00734); test: Cleavage of chromogenic substrate by human NIH thrombin; settings: 1 NIH-Einheit human thrombin, per min; Substratkonzentration 2 x 10^-4 molar
T2 construct: Humanplasmin und hu-manem NIH-Thrombin
Outline: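 Thrombin hydrolysis of chromogenic p-nitroanilide substrate read spectrophotometrically at 405 nm; fluorogenic naphthylamine, methylcoumarylamine or di(methoxycarbonyl)phenylamine substrates read continuously by fluorescence emission at 400-470 nm. Activity taken as product formed per unit time; 1 µmol product/min defined as 1 enzyme unit for a given substrate.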

Urinkallikrein = molecular target: T3, Urinkallikrein (Homo sapiens, UniProt P06870); test: Cleavage of chromogenic substrate by urinary kallikrein in human urine; settings: 1 ml human urine (pooled morning urine of healthy persons), per min; Substratkonzentration 2 x 10^-4 molar
T3 construct: 1 ml Urin und 1 ml TRIS-Imidazol-Puffer mit pH 7,9; from tissue; host or cells: human urine

[1] = molecular target: T4, Submandibularis-Kallikrein (Homo sapiens, UniProt P06870); test: Cleavage of chromogenic substrate by submandibular (glandular) kallikrein in human sputum; settings: 1 ml human sputum, per min; Substratkonzentration 2 x 10^-4 molar
T4 construct: Man mischt 0,5 ml Sputum mit 2 ml TRIS-Imidazol-Puffer; from tissue; host or cells: human sputum
Outline: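 Sputum mixed with TRIS-imidazole buffer (ionic strength 1.0), preincubated 5 min at 37°C and centrifuged; supernatant incubated with aqueous substrate solution (2 x 10^-3 M, stock). p-Nitroaniline release followed continuously at 405 nm for 5-10 min; activity expressed as mU per ml sputum from ΔOD/min.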

T1 sequence (P00747 581-810 limits assumed): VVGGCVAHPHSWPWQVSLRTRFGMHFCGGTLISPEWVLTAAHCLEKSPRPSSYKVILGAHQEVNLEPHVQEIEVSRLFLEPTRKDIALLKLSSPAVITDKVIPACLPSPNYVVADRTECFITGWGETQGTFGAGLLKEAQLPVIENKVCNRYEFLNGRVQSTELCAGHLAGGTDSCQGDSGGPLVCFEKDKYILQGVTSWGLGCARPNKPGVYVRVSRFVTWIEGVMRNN
T1 sequence (P00747 97-580 partner limits assumed): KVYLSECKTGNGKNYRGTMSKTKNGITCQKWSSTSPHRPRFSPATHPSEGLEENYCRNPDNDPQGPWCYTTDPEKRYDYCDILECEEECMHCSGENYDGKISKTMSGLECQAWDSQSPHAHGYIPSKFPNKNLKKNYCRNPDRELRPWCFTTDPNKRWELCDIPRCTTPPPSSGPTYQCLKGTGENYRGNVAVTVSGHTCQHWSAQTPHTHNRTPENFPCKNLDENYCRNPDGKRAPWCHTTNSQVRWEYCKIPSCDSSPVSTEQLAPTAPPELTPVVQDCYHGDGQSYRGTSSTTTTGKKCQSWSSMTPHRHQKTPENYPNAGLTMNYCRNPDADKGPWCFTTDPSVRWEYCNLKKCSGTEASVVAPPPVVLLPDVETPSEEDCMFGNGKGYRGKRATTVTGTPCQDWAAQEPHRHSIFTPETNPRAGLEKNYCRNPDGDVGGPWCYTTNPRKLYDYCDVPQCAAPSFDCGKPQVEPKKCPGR
T3 sequence (P06870 25-262): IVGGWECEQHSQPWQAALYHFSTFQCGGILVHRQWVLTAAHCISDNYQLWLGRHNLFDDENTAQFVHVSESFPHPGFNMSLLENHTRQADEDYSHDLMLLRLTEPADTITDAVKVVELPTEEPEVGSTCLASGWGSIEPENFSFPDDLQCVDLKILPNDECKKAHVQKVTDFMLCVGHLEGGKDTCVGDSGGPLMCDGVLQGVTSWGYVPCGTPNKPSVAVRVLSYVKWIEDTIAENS
T4 sequence (P06870 25-262): as above

N=C(N)NCCC[C@H](NC(=O)[C@@H](NC(=O)[C@H](N)Cc1ccccc1)C1CCCCC1)C(=O)Nc1ccc([N+](=O)[O-])cc1 [Beispiel 61, 2HBr.H-D-Phe-CHG-Arg-pNA] (H-[dF]-[Chg]-Arg-pNA)
Menge des durch 1 CU-Einheit Humanplasmin pro Min. freigesetzten Spaltproduktes R-NH2 in Nanomol (Humanplasmin) (Humanplasmin): 60 Nanomol | Menge des durch 1 NIH-Einheit Thrombin pro Min. freigesetzten Spaltproduktes R-NH2 in Nanomol (Humanthrombin) (Humanthrombin): 3,7 Nanomol | Menge des durch 1 ml Humanurin pro Min. freigesetzten Spaltproduktes R-NH2 in Nanomol (Urinkallikrein) (Urinkallikrein): 0,33 Nanomol | Menge des durch 1 ml Humansputum pro Min. freigesetzten Spaltproduktes R-NH2 in Nanomol (Submandibularis-Kallikrein) [1]: 4,9 Nanomol

N=C(N)NCCC[C@H](NC(=O)[C@@H](NC(=O)[C@H](N)c1ccccc1)C1CCCCC1)C(=O)Nc1ccc([N+](=O)[O-])cc1 [Beispiel 62, 2HBr.H-D-Ph'Gly-CHG-Arg-pNA] (H-[dPhg]-[Chg]-Arg-pNA)
Menge des durch 1 CU-Einheit Humanplasmin pro Min. freigesetzten Spaltproduktes R-NH2 in Nanomol (Humanplasmin) (Humanplasmin): 26 Nanomol | Menge des durch 1 NIH-Einheit Thrombin pro Min. freigesetzten Spaltproduktes R-NH2 in Nanomol (Humanthrombin) (Humanthrombin): 2,4 Nanomol | Menge des durch 1 ml Humanurin pro Min. freigesetzten Spaltproduktes R-NH2 in Nanomol (Urinkallikrein) (Urinkallikrein): 0,25 Nanomol | Menge des durch 1 ml Humansputum pro Min. freigesetzten Spaltproduktes R-NH2 in Nanomol (Submandibularis-Kallikrein) [1]: 7,2 Nanomol

N=C(N)NCCC[C@H](NC(=O)[C@H](Cc1ccccc1)NC(=O)[C@H](N)c1ccccc1)C(=O)Nc1ccc([N+](=O)[O-])cc1 [Beispiel 63, 2HBr.H-D-Ph'Gly-Phe-Arg-pNA] (H-[dPhg]-Phe-Arg-pNA)
Menge des durch 1 CU-Einheit Humanplasmin pro Min. freigesetzten Spaltproduktes R-NH2 in Nanomol (Humanplasmin) (Humanplasmin): 841 Nanomol | Menge des durch 1 NIH-Einheit Thrombin pro Min. freigesetzten Spaltproduktes R-NH2 in Nanomol (Humanthrombin) (Humanthrombin): 2,4 Nanomol | Menge des durch 1 ml Humanurin pro Min. freigesetzten Spaltproduktes R-NH2 in Nanomol (Urinkallikrein) (Urinkallikrein): 0,42 Nanomol | Menge des durch 1 ml Humansputum pro Min. freigesetzten Spaltproduktes R-NH2 in Nanomol (Submandibularis-Kallikrein) [1]: 7,0 Nanomol

N=C(N)NCCC[C@H](NC(=O)[C@H](Cc1ccccc1)NC(=O)[C@H](N)CC1CCCCC1)C(=O)Nc1ccc([N+](=O)[O-])cc1 [Beispiel 64, 2HBr.H-D-CHA-Phe-Arg-pNA] (H-[dCha]-Phe-Arg-pNA)
Menge des durch 1 CU-Einheit Humanplasmin pro Min. freigesetzten Spaltproduktes R-NH2 in Nanomol (Humanplasmin) (Humanplasmin): 1261 Nanomol | Menge des durch 1 NIH-Einheit Thrombin pro Min. freigesetzten Spaltproduktes R-NH2 in Nanomol (Humanthrombin) (Humanthrombin): 25,8 Nanomol | Menge des durch 1 ml Humanurin pro Min. freigesetzten Spaltproduktes R-NH2 in Nanomol (Urinkallikrein) (Urinkallikrein): 0,5 Nanomol | Menge des durch 1 ml Humansputum pro Min. freigesetzten Spaltproduktes R-NH2 in Nanomol (Submandibularis-Kallikrein) [1]: 9,7 Nanomol

N=C(N)NCCC[C@H](NC(=O)[C@@H]1CCCCN1C(=O)[C@H](N)C1CCCCC1)C(=O)Nc1ccc([N+](=O)[O-])cc1 [Beispiel 65, 2HBr.H-D-CHG-Pip-Arg-pNA] (H-[dChg]-[Pip]-Arg-pNA)
Menge des durch 1 CU-Einheit Humanplasmin pro Min. freigesetzten Spaltproduktes R-NH2 in Nanomol (Humanplasmin) (Humanplasmin): 259 Nanomol | Menge des durch 1 NIH-Einheit Thrombin pro Min. freigesetzten Spaltproduktes R-NH2 in Nanomol (Humanthrombin) (Humanthrombin): 142,5 Nanomol | Menge des durch 1 ml Humanurin pro Min. freigesetzten Spaltproduktes R-NH2 in Nanomol (Urinkallikrein) (Urinkallikrein): 1,92 Nanomol | Menge des durch 1 ml Humansputum pro Min. freigesetzten Spaltproduktes R-NH2 in Nanomol (Submandibularis-Kallikrein) [1]: 14,2 Nanomol

N=C(N)NCCC[C@H](NC(=O)[C@@H]1CCCCN1C(=O)[C@H](N)CC1CCCCC1)C(=O)Nc1ccc([N+](=O)[O-])cc1 [Beispiel 66, 2HBr.H-D-CHA-Pip-Arg-pNA] (H-[dCha]-[Pip]-Arg-pNA)
Menge des durch 1 CU-Einheit Humanplasmin pro Min. freigesetzten Spaltproduktes R-NH2 in Nanomol (Humanplasmin) (Humanplasmin): 228 Nanomol | Menge des durch 1 NIH-Einheit Thrombin pro Min. freigesetzten Spaltproduktes R-NH2 in Nanomol (Humanthrombin) (Humanthrombin): 114,2 Nanomol | Menge des durch 1 ml Humanurin pro Min. freigesetzten Spaltproduktes R-NH2 in Nanomol (Urinkallikrein) (Urinkallikrein): 0,53 Nanomol | Menge des durch 1 ml Humansputum pro Min. freigesetzten Spaltproduktes R-NH2 in Nanomol (Submandibularis-Kallikrein) [1]: 9,8 Nanomol

CCCC[C@H](NC(=O)[C@H](N)C1CCCCC1)C(=O)N[C@@H](CCCNC(=N)N)C(=O)Nc1ccc([N+](=O)[O-])cc1 [Beispiel 67, 2HBr.H-D-CHG-Nleu-Arg-pNA] (H-[dChg]-[Nle]-Arg-pNA)
Menge des durch 1 CU-Einheit Humanplasmin pro Min. freigesetzten Spaltproduktes R-NH2 in Nanomol (Humanplasmin) (Humanplasmin): 739 Nanomol | Menge des durch 1 NIH-Einheit Thrombin pro Min. freigesetzten Spaltproduktes R-NH2 in Nanomol (Humanthrombin) (Humanthrombin): 41,0 Nanomol | Menge des durch 1 ml Humanurin pro Min. freigesetzten Spaltproduktes R-NH2 in Nanomol (Urinkallikrein) (Urinkallikrein): 0,53 Nanomol | Menge des durch 1 ml Humansputum pro Min. freigesetzten Spaltproduktes R-NH2 in Nanomol (Submandibularis-Kallikrein) [1]: 13,5 Nanomol

CCCC[C@H](NC(=O)[C@H](N)CC1CCCCC1)C(=O)N[C@@H](CCCNC(=N)N)C(=O)Nc1ccc([N+](=O)[O-])cc1 [Beispiel 68, 2HBr.H-D-CHA-Nleu-Arg-pNA] (H-[dCha]-[Nle]-Arg-pNA)
Menge des durch 1 CU-Einheit Humanplasmin pro Min. freigesetzten Spaltproduktes R-NH2 in Nanomol (Humanplasmin) (Humanplasmin): 899 Nanomol | Menge des durch 1 NIH-Einheit Thrombin pro Min. freigesetzten Spaltproduktes R-NH2 in Nanomol (Humanthrombin) (Humanthrombin): 77,6 Nanomol | Menge des durch 1 ml Humanurin pro Min. freigesetzten Spaltproduktes R-NH2 in Nanomol (Urinkallikrein) (Urinkallikrein): 0,45 Nanomol | Menge des durch 1 ml Humansputum pro Min. freigesetzten Spaltproduktes R-NH2 in Nanomol (Submandibularis-Kallikrein) [1]: 15,0 Nanomol

CCC[C@H](NC(=O)[C@H](N)CC1CCCCC1)C(=O)N[C@@H](CCCNC(=N)N)C(=O)Nc1ccc([N+](=O)[O-])cc1 [Beispiel 69, 2HBr.H-D-CHA-Nval-Arg-pNA] (H-[dCha]-[Nva]-Arg-pNA)
Menge des durch 1 CU-Einheit Humanplasmin pro Min. freigesetzten Spaltproduktes R-NH2 in Nanomol (Humanplasmin) (Humanplasmin): 574 Nanomol | Menge des durch 1 NIH-Einheit Thrombin pro Min. freigesetzten Spaltproduktes R-NH2 in Nanomol (Humanthrombin) (Humanthrombin): 97,1 Nanomol | Menge des durch 1 ml Humanurin pro Min. freigesetzten Spaltproduktes R-NH2 in Nanomol (Urinkallikrein) (Urinkallikrein): 0,35 Nanomol | Menge des durch 1 ml Humansputum pro Min. freigesetzten Spaltproduktes R-NH2 in Nanomol (Submandibularis-Kallikrein) [1]: 14,2 Nanomol

CCC[C@H](NC(=O)[C@H](N)C1CCCCC1)C(=O)N[C@@H](CCCNC(=N)N)C(=O)Nc1ccc([N+](=O)[O-])cc1 [Beispiel 70, 2HBr.H-D-CHG-Nval-Arg-pNA] (H-[dChg]-[Nva]-Arg-pNA)
Menge des durch 1 CU-Einheit Humanplasmin pro Min. freigesetzten Spaltproduktes R-NH2 in Nanomol (Humanplasmin) (Humanplasmin): 488 Nanomol | Menge des durch 1 NIH-Einheit Thrombin pro Min. freigesetzten Spaltproduktes R-NH2 in Nanomol (Humanthrombin) (Humanthrombin): 67,4 Nanomol | Menge des durch 1 ml Humanurin pro Min. freigesetzten Spaltproduktes R-NH2 in Nanomol (Urinkallikrein) (Urinkallikrein): 0,38 Nanomol | Menge des durch 1 ml Humansputum pro Min. freigesetzten Spaltproduktes R-NH2 in Nanomol (Submandibularis-Kallikrein) [1]: 24,2 Nanomol

CCC[C@@H](N)C(=O)N[C@@H](CC1CCCCC1)C(=O)N[C@@H](CCCCN)C(=O)Nc1ccc([N+](=O)[O-])cc1 [Beispiel 71, 2HBr.H-D-Nval-CHA-Lys-pNA] (H-[dNva]-[Cha]-Lys-pNA)
Menge des durch 1 CU-Einheit Humanplasmin pro Min. freigesetzten Spaltproduktes R-NH2 in Nanomol (Humanplasmin) (Humanplasmin): 655 Nanomol | Menge des durch 1 NIH-Einheit Thrombin pro Min. freigesetzten Spaltproduktes R-NH2 in Nanomol (Humanthrombin) (Humanthrombin): 6,9 Nanomol | Menge des durch 1 ml Humanurin pro Min. freigesetzten Spaltproduktes R-NH2 in Nanomol (Urinkallikrein) (Urinkallikrein): 1,87 Nanomol | Menge des durch 1 ml Humansputum pro Min. freigesetzten Spaltproduktes R-NH2 in Nanomol (Submandibularis-Kallikrein) [1]: 18,04 Nanomol

CC[C@@H](N)C(=O)N[C@@H](CC1CCCCC1)C(=O)N[C@@H](CCCCN)C(=O)Nc1ccc([N+](=O)[O-])cc1 [Beispiel 72, 2HBr.H-D-But-CHA-Lys-pNA] (H-[dAbu]-[Cha]-Lys-pNA)
Menge des durch 1 CU-Einheit Humanplasmin pro Min. freigesetzten Spaltproduktes R-NH2 in Nanomol (Humanplasmin) (Humanplasmin): 532 Nanomol | Menge des durch 1 NIH-Einheit Thrombin pro Min. freigesetzten Spaltproduktes R-NH2 in Nanomol (Humanthrombin) (Humanthrombin): 3,6 Nanomol | Menge des durch 1 ml Humanurin pro Min. freigesetzten Spaltproduktes R-NH2 in Nanomol (Urinkallikrein) (Urinkallikrein): 2,22 Nanomol | Menge des durch 1 ml Humansputum pro Min. freigesetzten Spaltproduktes R-NH2 in Nanomol (Submandibularis-Kallikrein) [1]: 21,0 Nanomol

CC(C)C[C@@H](N)C(=O)N[C@@H](CC1CCCCC1)C(=O)N[C@@H](CCCCN)C(=O)Nc1ccc([N+](=O)[O-])cc1 [Beispiel 73, 2HBr.H-D-Leu-CHA-Lys-pNA] (H-[dL]-[Cha]-Lys-pNA)
Menge des durch 1 CU-Einheit Humanplasmin pro Min. freigesetzten Spaltproduktes R-NH2 in Nanomol (Humanplasmin) (Humanplasmin): 778 Nanomol | Menge des durch 1 NIH-Einheit Thrombin pro Min. freigesetzten Spaltproduktes R-NH2 in Nanomol (Humanthrombin) (Humanthrombin): 3,4 Nanomol | Menge des durch 1 ml Humanurin pro Min. freigesetzten Spaltproduktes R-NH2 in Nanomol (Urinkallikrein) (Urinkallikrein): 1,73 Nanomol | Menge des durch 1 ml Humansputum pro Min. freigesetzten Spaltproduktes R-NH2 in Nanomol (Submandibularis-Kallikrein) [1]: 19,3 Nanomol

CCCC[C@@H](N)C(=O)N[C@@H](CC1CCCCC1)C(=O)N[C@@H](CCCCN)C(=O)Nc1ccc([N+](=O)[O-])cc1 [Beispiel 74, 2HBr.H-D-Nleu-CHA-Lys-pNA] (H-[dNle]-[Cha]-Lys-pNA)
Menge des durch 1 CU-Einheit Humanplasmin pro Min. freigesetzten Spaltproduktes R-NH2 in Nanomol (Humanplasmin) (Humanplasmin): 695 Nanomol | Menge des durch 1 NIH-Einheit Thrombin pro Min. freigesetzten Spaltproduktes R-NH2 in Nanomol (Humanthrombin) (Humanthrombin): 3,9 Nanomol | Menge des durch 1 ml Humanurin pro Min. freigesetzten Spaltproduktes R-NH2 in Nanomol (Urinkallikrein) (Urinkallikrein): 0,77 Nanomol | Menge des durch 1 ml Humansputum pro Min. freigesetzten Spaltproduktes R-NH2 in Nanomol (Submandibularis-Kallikrein) [1]: 8,4 Nanomol

CC[C@H](NC(=O)[C@H](N)C1CCCCC1)C(=O)N[C@@H](CCCNC(=N)N)C(=O)Nc1ccc([N+](=O)[O-])cc1 [Beispiel 75, 2HBr.H-D-CHG-But-Arg-pNA] (H-[dChg]-[Abu]-Arg-pNA)
Menge des durch 1 CU-Einheit Humanplasmin pro Min. freigesetzten Spaltproduktes R-NH2 in Nanomol (Humanplasmin) (Humanplasmin): 439 Nanomol | Menge des durch 1 NIH-Einheit Thrombin pro Min. freigesetzten Spaltproduktes R-NH2 in Nanomol (Humanthrombin) (Humanthrombin): 102,9 Nanomol | Menge des durch 1 ml Humanurin pro Min. freigesetzten Spaltproduktes R-NH2 in Nanomol (Urinkallikrein) (Urinkallikrein): 0,51 Nanomol | Menge des durch 1 ml Humansputum pro Min. freigesetzten Spaltproduktes R-NH2 in Nanomol (Submandibularis-Kallikrein) [1]: 14,5 Nanomol
